No end group written: not given here.
How the values were obtained:
[1] = test system: ImMucin specific enriched T-cell clone; test: ELISA of cytokine secretion during development of the ImMucin-specific T cell subpopulation by repeated stimulation (FIG. 1); format: cell-based, human
Text: Thawed PBLs underwent 1st stimulation with ImMucin pulsed Autologues DC at a ratio of 20:1 and cultured for 7 days in dedicated T cell Medium. T cell medium contained RPMI medium supplemented with 10% FCS, L-Glutamine, Sodium Pyruvate, MEM-EAGLE non-essential amino-acids, HEPES and Gentamycin Sulphate (Bet-Haemek Industries, IL) as well as with 50 IU/ml of recombinant IL-7 (Cytolab IL). For the second stimulation, PBL were transferred to adherent autologues ImMucin-pulsed PBMC and cultured for additional 5 days in T cell Medium. At the end of the 5 days, medium was partial replaced with fresh medium containing 1 ug/ml of ImMucin and 50 IU/ml IL-2 for a third stimulation of 48 h at 37° C. Following the last stimulation ImMucin T cell line was checked for immune activation properties.
Cytokine release was studied during the culture of stimulated T-cells. The evaluated samples were collected from the T cell culture medium on day 2, 3, and 5 and stored until use at −20° C.
[…] of the selected capture antibody (e.g. anti-Hu IFN-Gamma, or anti-Hu TNF-alfa or anti IL-2) were added to each well at the final concentration of 5 μg/ml in PBS. Plates were incubated for 2 h at R.T. or over night at 4° C. Next, […] of blocking solution were added for an incubation of 2 h at R.T. […] of evaluated samples were added in duplicate into 2 wells for 2 hours at RT. After 2 h of incubation at R.T plates were washed λ4 times in washing solution. In the next step, a Biotin-conjugated detection antibody (relevant to coated antibody) was added at a final concentration of 10 μg/ml in total volume of 100 μl for 1 h at R.T. Finally, 100 μl/well working dilution (1:10000 in Blocker solution) of Streptavidin-HRP were added to each well and incubated for 1 h at R.T.
Plates were washed λ6 times with PBS-Tween (0.4%) and 100 μl/well of TMB/E Solution (CHEMICON, Catalog #ES001) was added. The plates were then exposed until blue color appeared in the wells of the positive control and no color was detected in the blank wells. To stop the color reaction, 50 μl/well of 10% of Sulfuric acid was added. The plates were counted in ELISA-Reader using a 450 nm filter.
For producing the specific T cell subpopulation PBL were stimulated three times for 7, 5 and 2 days with ImMucin presented via DC and PBMC. Following the 3rd stimulation the cells were evaluated against the different VXL epitopes.

[2] = test system: MDA-MB-231; test: In vitro cytotoxic assay (CTL) of ImMucin-stimulated HLA-A2.1 positive T-cell clone; format: cell-based; settings: MDA-MB-231 Human Brest Carcinoma, MUC1 +++, ratio 1:50
Description: (§1) Effector cells were ImMucin specific enriched T-Cell clone. Viable lymphocytes (effector cells), were centrifugation, resuspended in RPMI-HEPES medium, and admixed at different ratios with 5×10^3 35S methionine-labeled, tumor cells. CTL assays were performed in U-shaped microtiter wells, at 37° C., 5% CO2 for 5 hours. Cultures were terminated by centrifugation at 1000 rpm for 10 min at […]. A total of 100 µl of the supernatants was mixed with scintillation fluid and measured in a □□ counter (Becton Dickinson Canberra Australia). Percentage of specific lysis was calculated as follows: % lysis=(cpm in experimental well−cpm spontaneous release)/(cpm maximal release−cpm spontaneous release)×100. Spontaneous release was determined by incubation of 100 µl-labeled target cells with 100 µl of medium. Maximal release was determined by lysis of target cells in 100 µl 10% TrytonX-100.
(§2) In order to further evaluate the class II/class I cross presentation as well as the specificity and function of the T-cell clones, their class I restricted lysis potential was analyzed. For this assay the clones were screened for Class I HLA-A2.1 expression and their potential to lyse MUC1 and HLA-A2.1 positive and negative cell-lines was evaluated. […] The results summarized in Table 10 show a MUC1 as well as HLA-A2.1-restricted lysis. A breast tumor cell such as MDA-MB-231 which expresses both MUC1 and HLA-A2.1 was lysed effectively (23%), while another breast tumor cell line MDA-MB-468 which expresses only MUC1 but not the HLA-2.1 was not lysed al all. Other control cell-lines didn't manifest any lysis (see table 10).

[3] = test system: HT-29; test: as above; format: cell-based; settings: HT-29 Human Colon Carcinoma, MUC1 −, ratio 1:50
Description: as §1, §2

[4] = test system: Molt-4; test: as above; format: cell-based; settings: Molt-4 Human T cell Leukemia, MUC1 −, ratio 1:50
Description: as §1, §2

[5] = test system: MDA-MB-486; test: as above; format: cell-based; settings: MDA-MB-486 Human Brest Carcinoma, MUC1 ++, ratio 1:50
Description: as §1, §2

[6] = test system: K562; test: as above; format: cell-based; settings: K562 Human Myalo Leukeima, MUC1 +, ratio 1:50
Description: as §1, §2

[7] = test system: PBL; test: Proliferation of PBL, direct presentation of peptide without APC; format: cell-based, human
Description: In all three methods, plates were cultured for 3-5 days under visual control and then 0.5 □Cu/well of 3[H] (Amersham) was added for additional culture of to 18 h at 37° C. […] DC indirect presentation: In the first method, 100 µl of 2×10^6 thawed PBL were placed in U-shape Bottom 96 well plate (Nunc) with RPMI medium supplemented with 5% H AB serum, L-Glutamine, Sodium Pyruvate, MEM-EAGLE non-essential amino-acids, HEPES and Gentamycin. At the next stage 100 µl of 25×10^4 peptide-pulsed DC were added to each three wells of PBL and underwent proliferation analysis as described above. • 2. PBL direct presentation: In the 2nd method, 100 µl of 2×10^6 PBL were placed in Flat Bottom 96 well plates (Corning) and stimulated with different concentrations (0.05 ug/ml-2 ug/ml) of peptides. In the next step the cells underwent proliferation analysis as described above. • 3. PBMC direct presentation: In third method PNMC were used under similar conditions as described for the second method.
Direct presentation of peptides to PBL without any APC

[8] = after the second and third stimulations with ImMucin

In the case of MTPGTQSPFFLLLLLTVLTVV [ImMucin], the TNF-Alfa secretion ([1]; after the 3rd stimulation on day 14) is reported as “completely disappeared”, the “IL-2 secretion from CD4+ T cells” value [1, 8] is reported as “increased dramatically” and the “INF-gamma secretion mainly from CD8+ T cells” value [1, 8] is reported as “increased dramatically”. For the same sequence, the “TNF-Alfa secretion, peak” value ([1]; during the first stimulation with ImMucin (FIG. 1)) was 5 ng/mL, the TNF-Alfa secretion ([1]; following a second stimulation with ImMucin) was “decreased” and the “Lysis % (1:50)” value [2] was 23%. For the same sequence, the “Lysis % (1:50)” value [3] was 0%, the “Lysis % (1:50)” value [4] was 1.1% and the “Lysis % (1:50)” value [5] was 0%. The “Lysis % (1:50)” value [6] was 1.7%, the “PBL Index of stimulation (SI) Direct no APC” value ([7]; average of two healthy donors (Table 11)) was 0 and the “Optimal dose Direct no APC” value ([7]; optimal dose required for PBL activation, average of 5 experiments, six donors) was “No Influence”. For the same sequence, the “Peak of Proliferation (Hours) Direct no APC” value ([7]; visual inspection daily during 5 days, average of 5 experiments) was “No proliferation”.

Source: US11179452B2, “Antigen specific multi epitope vaccines” (priority 2006, dated 2021)
